Experimental data published in PubChem BioAssay AID272 (DTP/NCI, 2004).
Where “and” joins values, the source holds several entries; their conditions need not be identical. Equal values may be shown once. Results filed as inconclusive are left out.

Tested on: Lewis lung carcinoma i.m., BDF1 mice, T/C %
Assay: NCI In Vivo Anticancer Drug Screen. Data for tumor model Lewis Lung Carcinoma (intramuscular) in B6D2F1 (BDF1) mice
Summary of the method: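 Value is the ratio of a treated-group measurement (T) to the matching vehicle-control measurement (C), using either survival or tumour size in mice bearing transplanted tumours.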

[1] = endpoint: mean tumor weight (est.), dose: 10.0 mg/kg/injection, schedule: Q01DX011 (ip), vehicle: saline with Tween-80, higher = larger tumour
[2] = endpoint: mean tumor weight (est.), dose: 20.0 mg/kg/injection, schedule: Q01DX011 (ip), vehicle: saline with Tween-80, higher = larger tumour
[3] = endpoint: median survival time, dose: 10.0 mg/kg/injection, schedule: Q01DX011 (ip), vehicle: saline with Tween-80, higher = longer survival
[4] = endpoint: median survival time, dose: 20.0 mg/kg/injection, schedule: Q01DX011 (ip), vehicle: saline with Tween-80, higher = longer survival
[5] = endpoint: median survival time, dose: 10.0 mg/kg/injection, schedule: Q01DX009 (ip), vehicle: saline, higher = longer survival
[6] = endpoint: median survival time, dose: 20.0 mg/kg/injection, schedule: Q01DX009 (ip), vehicle: saline, higher = longer survival
[7] = endpoint: median survival time, dose: 12.5 mg/kg/injection, schedule: Q01DX011 (ip), vehicle: saline with Tween-80, higher = longer survival
[8] = endpoint: median survival time, dose: 50.0 mg/kg/injection, schedule: Q01DX011 (ip), vehicle: saline with Tween-80, higher = longer survival

O=C(CBr)OCCOc1ccccc1
T/C (endpoint: mean tumor weight (est.), dose: 5.0 mg/kg/injection, schedule: Q01DX011 (ip), vehicle: saline with Tween-80, higher = larger tumour): 85 % of control
T/C [1]: 93 % of control
T/C [2]: 85 % of control
T/C (endpoint: median survival time, dose: 5.0 mg/kg/injection, schedule: Q01DX011 (ip), vehicle: saline with Tween-80, higher = longer survival): 88 % of control
T/C [3]: 104 % of control
T/C [4]: 108 % of control

O=c1[nH]c(=O)n(C2CC(O)C(CO)O2)cc1C(F)(F)F (stereo not given)
T/C (endpoint: median survival time, dose: 2.5 mg/kg/injection, schedule: Q01DX009 (ip), vehicle: saline, higher = longer survival): 101 % of control
T/C [5]: 93 % of control
T/C [6]: 94 % of control and 101 % of control

CCC[CH2][Sn]1([CH2]CCC)[O]OC(c2ccccc2)[O]1 (stereo not given)
T/C (endpoint: median survival time, dose: 0.5 mg/kg/injection, schedule: Q01DX009 (ip), vehicle: saline, higher = longer survival): 107 % of control
T/C (endpoint: median survival time, dose: 1.0 mg/kg/injection, schedule: Q01DX009 (ip), vehicle: saline, higher = longer survival): 114 % of control
T/C (endpoint: median survival time, dose: 2.0 mg/kg/injection, schedule: Q01DX009 (ip), vehicle: saline, higher = longer survival): 106 % of control
T/C (endpoint: median survival time, dose: 4.0 mg/kg/injection, schedule: Q01DX009 (ip), vehicle: saline, higher = longer survival): 113 % of control

N=c1ccn2c(n1)OC1C(O)C(CO)OC12 (stereo not given)
T/C (endpoint: mean tumor weight, dose: 200.0 mg/kg/injection, schedule: Q01DX011 (ip), vehicle: water, higher = larger tumour): 34 % of control
T/C (endpoint: mean tumor weight, dose: 400.0 mg/kg/injection, schedule: Q01DX011 (ip), vehicle: water, higher = larger tumour): 64 % of control
T/C (endpoint: median survival time, dose: 200.0 mg/kg/injection, schedule: Q01DX011 (ip), vehicle: water, higher = longer survival): 115 % of control
T/C (endpoint: median survival time, dose: 400.0 mg/kg/injection, schedule: Q01DX011 (ip), vehicle: water, higher = longer survival): 124 % of control

CCCCCCCCCCCC(c1ccccc1)[N+](C)(C)C (stereo not given)
T/C (endpoint: mean tumor weight (est.), dose: 2.0 mg/kg/injection, schedule: Q01DX011 (ip), vehicle: saline, higher = larger tumour): 89 % of control
T/C (endpoint: mean tumor weight (est.), dose: 4.0 mg/kg/injection, schedule: Q01DX011 (ip), vehicle: saline, higher = larger tumour): 76 % of control
T/C (endpoint: median survival time, dose: 2.0 mg/kg/injection, schedule: Q01DX011 (ip), vehicle: saline, higher = longer survival): 104 % of control
T/C (endpoint: median survival time, dose: 4.0 mg/kg/injection, schedule: Q01DX011 (ip), vehicle: saline, higher = longer survival): 108 % of control

NC(=O)c1cc(N2CC2)c([N+](=O)[O-])cc1[N+](=O)[O-]
T/C (endpoint: mean tumor weight, dose: 10.0 mg/kg/injection, schedule: Q01DX011 (ip), vehicle: saline with Tween-80, higher = larger tumour): 100 % of control
T/C (endpoint: mean tumor weight, dose: 20.0 mg/kg/injection, schedule: Q01DX011 (ip), vehicle: saline with Tween-80, higher = larger tumour): 52 % of control
T/C (endpoint: mean tumor weight, dose: 40.0 mg/kg/injection, schedule: Q01DX011 (ip), vehicle: saline with Tween-80, higher = larger tumour): 5 % of control
T/C [3]: 94 % of control
T/C [4]: 116 % of control
T/C (endpoint: median survival time, dose: 40.0 mg/kg/injection, schedule: Q01DX011 (ip), vehicle: saline with Tween-80, higher = longer survival): 88 % of control

C[C@]12CC[C@H]3[C@@H](CC[C@]4(O)C[C@@H](O)CC[C@]34C=O)[C@@]1(O)CC[C@@H]2C1=CC(=O)OC1
T/C [7]: 106 % of control
T/C [8]: 115 % of control

Cc1nc(N)sc1CCCl
T/C (endpoint: mean tumor weight (est.), dose: 10.0 mg/kg/injection, schedule: Q01DX011 (ip), vehicle: saline, higher = larger tumour): 86 % of control
T/C (endpoint: mean tumor weight (est.), dose: 20.0 mg/kg/injection, schedule: Q01DX011 (ip), vehicle: saline, higher = larger tumour): 105 % of control
T/C (endpoint: mean tumor weight (est.), dose: 40.0 mg/kg/injection, schedule: Q01DX011 (ip), vehicle: saline, higher = larger tumour): 91 % of control
T/C (endpoint: median survival time, dose: 10.0 mg/kg/injection, schedule: Q01DX011 (ip), vehicle: saline, higher = longer survival): 98 % of control
T/C (endpoint: median survival time, dose: 20.0 mg/kg/injection, schedule: Q01DX011 (ip), vehicle: saline, higher = longer survival): 104 % of control
T/C (endpoint: median survival time, dose: 40.0 mg/kg/injection, schedule: Q01DX011 (ip), vehicle: saline, higher = longer survival): 104 % of control

O=c1[nH]cc(F)c(=O)[nH]1
T/C [1]: 37 % of control
T/C [2]: 9 % of control
T/C (endpoint: mean tumor weight, dose: 5.0 mg/kg/injection, schedule: Q01DX011 (ip), vehicle: other, higher = larger tumour): 93 % of control
T/C (endpoint: mean tumor weight, dose: 5.0 mg/kg/injection, schedule: Q01DX011 (ip), vehicle: saline, higher = larger tumour): 71 % of control
T/C (endpoint: mean tumor weight, dose: 10.0 mg/kg/injection, schedule: Q01DX011 (ip), vehicle: other, higher = larger tumour): 46 % of control
T/C (endpoint: mean tumor weight, dose: 10.0 mg/kg/injection, schedule: Q01DX011 (ip), vehicle: saline, higher = larger tumour): 51 % of control and 57 % of control
T/C (endpoint: mean tumor weight, dose: 20.0 mg/kg/injection, schedule: Q01DX011 (ip), vehicle: other, higher = larger tumour): 18 % of control
T/C (endpoint: mean tumor weight, dose: 20.0 mg/kg/injection, schedule: Q01DX011 (ip), vehicle: saline, higher = larger tumour): 5 % of control
T/C (endpoint: median survival time, dose: 5.0 mg/kg/injection, schedule: Q01DX011 (ip), vehicle: other, higher = longer survival): 100 % of control
T/C (endpoint: median survival time, dose: 6.3 mg/kg/injection, schedule: Q04DX004 (ip), vehicle: saline, higher = longer survival): 112 % of control
T/C [5]: 112 % of control
T/C (endpoint: median survival time, dose: 10.0 mg/kg/injection, schedule: Q01DX011 (ip), vehicle: other, higher = longer survival): 96 % of control
T/C (endpoint: median survival time, dose: 12.5 mg/kg/injection, schedule: Q04DX004 (ip), vehicle: saline, higher = longer survival): 116 % of control
T/C [6]: 119 % of control
T/C (endpoint: median survival time, dose: 20.0 mg/kg/injection, schedule: Q01DX011 (ip), vehicle: other, higher = longer survival): 122 % of control
T/C (endpoint: median survival time, dose: 25.0 mg/kg/injection, schedule: Q04DX004 (ip), vehicle: saline, higher = longer survival): 108 % of control
T/C (endpoint: median survival time, dose: 50.0 mg/kg/injection, schedule: Q04DX004 (ip), vehicle: saline, higher = longer survival): 89 % of control

O=[N+]([O-])c1cc([N+](=O)[O-])c(Nn2c3ccccc3c3ccccc32)c([N+](=O)[O-])c1
T/C [7]: 97 % of control
T/C (endpoint: median survival time, dose: 25.0 mg/kg/injection, schedule: Q01DX011 (ip), vehicle: saline with Tween-80, higher = longer survival): 102 % of control
T/C [8]: 108 % of control

CCN1/C(=C/C(C)=C/c2sc3ccccc3[n+]2CC)Sc2ccccc21
T/C (endpoint: mean tumor weight (est.), dose: 50.0 micrograms/kg/injection, schedule: Q01DX011 (ip), vehicle: saline with Tween-80, higher = larger tumour): 88 % of control
T/C (endpoint: mean tumor weight (est.), dose: 100.0 micrograms/kg/injection, schedule: Q01DX011 (ip), vehicle: saline with Tween-80, higher = larger tumour): 74 % of control
T/C (endpoint: median survival time, dose: 50.0 micrograms/kg/injection, schedule: Q01DX011 (ip), vehicle: saline with Tween-80, higher = longer survival): 91 % of control
T/C (endpoint: median survival time, dose: 100.0 micrograms/kg/injection, schedule: Q01DX011 (ip), vehicle: saline with Tween-80, higher = longer survival): 87 % of control

Nc1n[nH]c(N)n1
T/C (endpoint: mean tumor weight, dose: 125.0 mg/kg/injection, schedule: Q03HX024 (ip), vehicle: water, higher = larger tumour): 89 % of control
T/C (endpoint: mean tumor weight, dose: 250.0 mg/kg/injection, schedule: Q03HX024 (ip), vehicle: water, higher = larger tumour): 81 % of control
T/C (endpoint: mean tumor weight, dose: 750.0 mg/kg/injection, schedule: Q01DX009 (ip), vehicle: water, higher = larger tumour): 72 % of control
T/C (endpoint: mean tumor weight, dose: 750.0 mg/kg/injection, schedule: Q01DX011 (ip), vehicle: water, higher = larger tumour): 68 % of control
T/C (endpoint: median survival time, dose: 375.0 mg/kg/injection, schedule: Q01DX009 (ip), vehicle: water, higher = longer survival): 116 % of control
T/C (endpoint: median survival time, dose: 375.0 mg/kg/injection, schedule: Q01DX011 (ip), vehicle: water, higher = longer survival): 110 % of control
T/C (endpoint: median survival time, dose: 750.0 mg/kg/injection, schedule: Q01DX009 (ip), vehicle: water, higher = longer survival): 124 % of control
T/C (endpoint: median survival time, dose: 750.0 mg/kg/injection, schedule: Q01DX011 (ip), vehicle: water, higher = longer survival): 104 % of control
T/C (endpoint: median survival time, dose: 1500.0 mg/kg/injection, schedule: Q01DX011 (ip), vehicle: water, higher = longer survival): 124 % of control

Cc1ccc(NC(=O)N(CCCl)N=O)cc1C
T/C (endpoint: median survival time, dose: 8.4 mg/kg/injection, schedule: Q07DX003 (ip), vehicle: Klucel (hydroxypropylcellulose) (HPC), higher = longer survival): 106 % of control
T/C (endpoint: median survival time, dose: 14.0 mg/kg/injection, schedule: Q07DX003 (ip), vehicle: Klucel (hydroxypropylcellulose) (HPC), higher = longer survival): 91 % of control
T/C (endpoint: median survival time, dose: 23.0 mg/kg/injection, schedule: Q07DX003 (ip), vehicle: Klucel (hydroxypropylcellulose) (HPC), higher = longer survival): 97 % of control

CC/C(=C(/CC)c1ccc(O)cc1)c1ccc(O)cc1
T/C (endpoint: mean tumor weight, dose: 25.0 mg/kg/injection, schedule: Q01DX011 (ip), vehicle: steriod suspending solution, higher = larger tumour): 43 % of control
T/C (endpoint: mean tumor weight, dose: 50.0 mg/kg/injection, schedule: Q01DX011 (ip), vehicle: steriod suspending solution, higher = larger tumour): 29 % of control
T/C (endpoint: mean tumor weight, dose: 100.0 mg/kg/injection, schedule: Q01DX011 (ip), vehicle: steriod suspending solution, higher = larger tumour): 14 % of control and 34 % of control
T/C (endpoint: median survival time, dose: 25.0 mg/kg/injection, schedule: Q01DX011 (ip), vehicle: steriod suspending solution, higher = longer survival): 86 % of control
T/C (endpoint: median survival time, dose: 25.0 mg/kg/injection, schedule: Q01DX011 (ip), vehicle: water, higher = longer survival): 91 % of control and 97 % of control
T/C (endpoint: median survival time, dose: 50.0 mg/kg/injection, schedule: Q01DX011 (ip), vehicle: steriod suspending solution, higher = longer survival): 106 % of control
T/C (endpoint: median survival time, dose: 50.0 mg/kg/injection, schedule: Q01DX011 (ip), vehicle: water, higher = longer survival): 92 % of control
T/C (endpoint: median survival time, dose: 100.0 mg/kg/injection, schedule: Q01DX011 (ip), vehicle: steriod suspending solution, higher = longer survival): 104 % of control
T/C (endpoint: median survival time, dose: 100.0 mg/kg/injection, schedule: Q01DX011 (ip), vehicle: water, higher = longer survival): 97 % of control and 101 % of control
